PMC8151276, “An Integrated Approach toward NanoBRET Tracers for Analysis of GPCR Ligand Engagement” (Molecules, 2021)

Target: T1, NPY4R (Homo sapiens, UniProt P50391)
T1 construct: purchased Promega (in-house HiBiT-GPCR construct library, NanoBRET)
Assay: NanoBRET screen HiBiT-NPY4R in HEK293
Assay type: binding
Procedure: Each tracer candidate was screened across the entire library of HiBiT-GPCR constructs using NanoBRET as the detection modality. As depicted in Figure 4A, the specificity of interactions was evaluated through decrease in BRET due to competitive displacement of a bound tracer by excess parental compound. Each tracer was analyzed for binding to each HiBiT-GPCR fusion in the absence and in the presence of competing parental compound. Briefly, HEK293 cells were transfected with HiBiT-GPCR constructs diluted into promoterless DNA to reduce expression and maximize translocation to the cell surface. Each tracer candidate was then screened at concentrations of 1 μM and 0.1 μM across cells expressing these fusions. Cells were treated for 1.5 h with tracer either alone or in the presence of 20 μM competing parental compound (i.e., control). BRET was measured upon addition of purified LgBiT and subsequent complementation with HiBiT genetically fused to a GPCR. The specificity of interactions was assessed through a decrease in BRET signal due to competitive displacement of the bound tracer. To further gauge the robustness of these interactions, the fold response over the control (i.e., BRETtracer/BRETcontrol) was calculated. We chose a 1.5-fold response, which translates to ≥7-fold signal over noise as the minimal threshold required to score an interaction as positive.
HiBiT-GPCR DNA constructs were diluted in 10 mM Tris pH 8 to a final concentration of 0.01 μg/μL, arrayed in 96-well plates and stored at −20 °C. For transfection, HEK293 cells were suspended in Opti-MEM (without phenol red) supplemented with 2% fetal bovine serum (Seradigm) and 100 units/mL penicillin–streptomycin (Gibco) at a final concentration of 220,000 cells/mL and dispensed into white 96-well plates at 90 μL/well. Subsequent transfections and screens were carried using an Agilent Bravo Automated Liquid Handling Platform. First, the 96-well HiBiT DNA arrays were diluted 25-fold in Opti-MEM (without serum or phenol red) to a final concentration of 0.0004 μg/μL and 20 μL of the diluted DNAs were transferred into new 96-well plates. Next, promoterless carrier DNA (1 μg/μL) was diluted 25-fold (0.04 μg/μL) and then dispensed into the diluted arrays at 20 μL/well. Following brief mixing, Viafect transfection reagent (Promega) diluted 16-fold into Opti-MEM was dispensed into the plates at 40 μL/well. After mixing by pipetting, plates were incubated for 10 min on the pipetting station deck. The DNA-transfection reagent complexes were then added to plates containing cells. To facilitate the screen, 10 μL of DNA-transfection reagent complexes were added in duplicates to the top 4 and bottom 4 rows, resulting in two identical 48-well arrays per plate. Plates with transfected cells were incubated for 18–20 h at 37 °C/5% CO2. A screen of each tracer across the entire library using two different concentrations requires duplicate plates of transfected cells. Depending on the number of tracers being screened, transfections can be scaled up using the same ratios. The next day, for each tracer, four 20× screening solutions in tracer dilution buffer (Promega) were prepared: two duplicates at final concentration of 20 μM and two duplicates at a final concentration of 2 μM. […] The four resulting solutions were diluted 4-fold in Opti-MEM without serum or phenol red to generate 5× solutions (5 µM and 0.5 µM tracer +/− 100 μM competing compound). To screen the library, a BioTek MultiFlo FX liquid dispenser was used to dispense 22.5 µL of tracer solution to the top 4 rows and 22.5 µL tracer + competing compound solution to the 4 bottom rows. Plates were briefly mixed on an orbital shaker and incubated for 1.5 h at room temperature. […] Plates were briefly mixed on an orbital shaker and incubated for 15 min to allow complementation.

T1 sequence (P50391 whole entry): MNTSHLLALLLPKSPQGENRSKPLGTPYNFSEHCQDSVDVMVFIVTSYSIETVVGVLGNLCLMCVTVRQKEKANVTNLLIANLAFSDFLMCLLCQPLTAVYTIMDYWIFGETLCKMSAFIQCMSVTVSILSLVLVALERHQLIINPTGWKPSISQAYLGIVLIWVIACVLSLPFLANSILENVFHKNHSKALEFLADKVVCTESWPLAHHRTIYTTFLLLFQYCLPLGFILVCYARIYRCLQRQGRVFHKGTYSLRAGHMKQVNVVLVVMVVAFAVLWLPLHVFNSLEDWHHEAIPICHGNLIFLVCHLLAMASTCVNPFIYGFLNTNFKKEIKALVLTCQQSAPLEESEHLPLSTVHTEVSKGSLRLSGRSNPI

SMILES	NanoBRET Fold Response (NPY4R, tracer 0.1μM)	NanoBRET Fold Response (NPY4R, tracer 1μM)	other results
CCOC(=O)c1cc(C#N)c(N2CCC(C(=O)NS(=O)(=O)Cc3ccccc3/C=C/C(=O)NCCNC(=O)CCc3ccc4n3[B-](F)(F)[N+]3=C(c5ccc[nH]5)C=CC3=C4)CC2)nc1C [AZD1283-1-NB590]			NanoBRET Fold Response (NPY4R, 0.1μM): 1.02; NanoBRET Fold Response (NPY4R, 1μM): 1.03
N#CN=C(NCCCOc1cccc(CN2CCCCC2)c1)NCCNC(=O)CCOCCOCCOCCOCCNC(=O)CCc1ccc2n1[B-](F)(F)[N+]1=C(c3ccc[nH]3)C=CC1=C2 [Aminopotentidine-2-NB590]	1.01	0.98	
CN(C)CCC=C1c2ccccc2CCc2ccc(C(=O)NCCNC(=O)CCOCCOCCOCCOCCNC(=O)CCc3ccc4n3[B-](F)(F)[N+]3=C(c5ccc[nH]5)C=CC3=C4)cc21 [Amitriptyline-a-2-NB590]			NanoBRET Fold Response (tracer at 0.1μM): 1.11; NanoBRET Fold Response (tracer at 1μM): 0.96
CN(C)CCC=C1c2ccccc2CCc2ccc(C(=O)NCCNC(=O)CCOCCOCCOCCOCCNC(=O)CCc3ccc4n3[B-](F)(F)[N+]3=C(c5ccc[nH]5)C=CC3=C4)cc21 [Amitriptyline-b-2-NB590]			NanoBRET Fold Response (tracer at 1μM, listed as amitriptyline-b-2-NB590): 1.03
COc1ccc2c(n1)c(CCNC(C)=O)cn2CCNC(=O)CCc1ccc2n1[B-](F)(F)[N+]1=C(c3ccc[nH]3)C=CC1=C2 [Azamelatonin-1-NB590]			NanoBRET Fold Response (0.1μM tracer): 1.11; NanoBRET Fold Response (1μM tracer): 1.08
COc1ccc2[nH]c(-c3ccc(CNC(=O)CCOCCOCCOCCOCCNC(=O)CCc4ccc5n4[B-](F)(F)[N+]4=C(c6ccc[nH]6)C=CC4=C5)cc3)c(CCNC(C)=O)c2n1 [AzomelatoninICO9-2-NB590]			NanoBRET Fold Response (0.1μM tracer): 1.11; NanoBRET Fold Response (1μM tracer): 0.94
O=C(CCOCCOCCOCCOCCNC(=O)CCc1ccc2n1[B-](F)(F)[N+]1=C(c3ccc[nH]3)C=CC1=C2)NCCCN1CCN(C2=Nc3cc(Cl)ccc3Nc3ccccc32)CC1 [Clozapine-a-2-NB590]			NanoBRET Fold Response (NPY4R, 0.1μM tracer): 0.88; NanoBRET Fold Response (NPY4R, 1μM tracer): 1.40
CN1CCN(C2=Nc3cc(Cl)ccc3Nc3ccc(CNC(=O)CCOCCOCCOCCOCCNC(=O)CCc4ccc5n4[B-](F)(F)[N+]4=C(c6ccc[nH]6)C=CC4=C5)cc32)CC1 [Clozapine-b-2-NB590]			NanoBRET Fold Response (NPY4R, 0.1μM tracer): 1.02; NanoBRET Fold Response (NPY4R, 1μM tracer): 1.08
O=C(CCOCCOCCOCCOCCNC(=O)CCc1ccc2n1[B-](F)(F)[N+]1=C(c3ccc[nH]3)C=CC1=C2)NCCCN1CCN(C2=Nc3ccccc3Oc3ccc(Cl)cc32)CC1 [Loxapine-a-2-NB590]	0.99	1.10	
COc1ccccc1N1CCN(CCCCN2C(=O)c3ccc(CNC(=O)CCOCCOCCOCCOCCNC(=O)CCc4ccc5n4[B-](F)(F)[N+]4=C(c6ccc[nH]6)C=CC4=C5)cc3C2=O)CC1 [NAN-190-2-NB590]	0.95	1.04	
COc1ccccc1N1CCN(CCCCN2C(=O)c3ccc(CNC(=O)CCOCCNC(=O)c4ccc(CNC(=O)CCc5ccc6n5[B-](F)(F)[N+]5=C(c7ccc[nH]7)C=CC5=C6)cc4)cc3C2=O)CC1 [NAN-190-3-NB590]	1.06	0.95	
O=C(CCc1ccc2n1[B-](F)(F)[N+]1=C(c3ccc[nH]3)C=CC1=C2)NCc1ccc(C(=O)NCCOCCC(=O)N[C@@H]2CC[C@@]3(O)[C@H]4Cc5ccc(O)c6c5[C@@]3(CCN4CC3CC3)[C@H]2O6)cc1 [Naltrexone-3-NB590]	1.04	0.91	
Cc1cc2c(s1)Nc1ccccc1N=C2N1CCN(CCCNC(=O)CCOCCOCCOCCOCCNC(=O)CCc2ccc3n2[B-](F)(F)[N+]2=C(c4ccc[nH]4)C=CC2=C3)CC1 [Olanzapine-a-2-NB590]	1.01	0.91	
O=C(CCc1ccc2n1[B-](F)(F)[N+]1=C(c3ccc[nH]3)C=CC1=C2)NCc1ccc(C(=O)NCCOCCOCCNCC(O)COc2cccc3ccccc23)cc1 (stereo not shown) [Propranolol-3-NB590]			NanoBRET Fold Response (NPY4R, 0.1μM): 0.98; NanoBRET Fold Response (NPY4R, 1μM): 0.99
O=C(CCc1ccc2n1[B-](F)(F)[N+]1=C(c3ccc[nH]3)C=CC1=C2)NCCOCCOCCNC(=O)OCCOCCN1CCN(C2=Nc3ccccc3Sc3ccccc32)CC1 [Quetiapine-a-2-NB590]	1.06	0.73	
Cc1nc2n(c(=O)c1CCN1CCC(c3noc4cc(F)ccc34)CC1)CCCC2OC(=O)NCCOCCOCCOCCOCCNC(=O)CCc1ccc2n1[B-](F)(F)[N+]1=C(c3ccc[nH]3)C=CC1=C2 (stereo not shown) [Risperidone-2-NB590]	0.95	1.02	
CC(C)N(CC[C@H](c1ccccc1)c1cc(CCNC(=O)CCOCCOCCOCCOCCNC(=O)CCc2ccc3n2[B-](F)(F)[N+]2=C(c4ccc[nH]4)C=CC2=C3)ccc1O)C(C)C [Tolterodine-2-NB590]	0.86	1.09	
CC(C)N(CC[C@H](c1ccccc1)c1cc(CCNC(=O)c2ccc(CNC(=O)CCc3ccc4n3[B-](F)(F)[N+]3=C(c5ccc[nH]5)C=CC3=C4)cc2)ccc1O)C(C)C [Tolterodine-BZ-NB590]	0.88	0.98	
CCCn1c(=O)c2[nH]c(-c3ccc(OCC(=O)NCCNC(=O)CCOCCNC(=O)c4ccc(CNC(=O)CCc5ccc6n5[B-](F)(F)[N+]5=C(c7ccc[nH]7)C=CC5=C6)cc4)cc3)nc2n(CCC)c1=O [XAC-3-NB590]	0.97	0.86	
